In PubChem BioAssay AID256 (DTP/NCI, 2004):
Several values for one entry are separate records, joined by “and”; a condition that tells them apart may be missing. Equal entries are not always repeated. Inconclusive results and toxic doses are left out. The calls were made as follows: active = survival T/C of 150% or more; inactive = T/C below 125% in these data.

Test system: CD2F1 mice, L1210 leukemia ip, survival T/C
Assay: NCI In Vivo Anticancer Drug Screen. Data for tumor model L1210 Leukemia (intraperitoneal) in CD2F1 (CDF1) mice
Details: endpoint: mean survival time, higher = longer survival
How it was run: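 In this screen, transplantable tumors were grown in mice given either the compound or its vehicle. Results were expressed as the treated measurement relative to the control measurement.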

[1] = dose: 100.0 mg/kg/injection, schedule: Q01DX009 (ip), vehicle: saline with Tween-80
[2] = dose: 200.0 mg/kg/injection, schedule: Q01DX009 (ip), vehicle: saline with Tween-80
[3] = dose: 400.0 mg/kg/injection, schedule: Q01DX009 (ip), vehicle: saline with Tween-80
[4] = dose: 100.0 mg/kg/injection, schedule: Q04DX003 (ip), vehicle: saline with Tween-80
[5] = dose: 200.0 mg/kg/injection, schedule: Q04DX003 (ip), vehicle: saline with Tween-80
[6] = dose: 400.0 mg/kg/injection, schedule: Q04DX003 (ip), vehicle: saline with Tween-80

Measured: T/C

NC(N)=NCCCCC(N)C(=O)O (stereo not given)
inactive: dose: 100.0 mg/kg/injection, schedule: Q01DX009 (ip), vehicle: acetone 101 % of control | dose: 100.0 mg/kg/injection, schedule: Q01DX009 (ip), vehicle: saline 95 % of control | dose: 100.0 mg/kg/injection, schedule: Q04DX003 (ip), vehicle: saline 97 % of control | dose: 200.0 mg/kg/injection, schedule: Q01DX009 (ip), vehicle: acetone 96 % of control | dose: 200.0 mg/kg/injection, schedule: Q01DX009 (ip), vehicle: saline 95 % of control | dose: 200.0 mg/kg/injection, schedule: Q04DX003 (ip), vehicle: saline 100 % of control | dose: 400.0 mg/kg/injection, schedule: Q01DX009 (ip), vehicle: acetone 98 % of control | dose: 400.0 mg/kg/injection, schedule: Q01DX009 (ip), vehicle: saline 95 % of control | dose: 400.0 mg/kg/injection, schedule: Q04DX003 (ip), vehicle: saline 103 % of control

O=C(NCCCC1C2CCC(C2)C1CNC(=O)Nc1cccc(Cl)c1)Nc1cccc(Cl)c1 (stereo not given)
inactive: [1] 93 % of control | [2] 93 % of control | [3] 89 % of control

Nc1ccc(N=Nc2ccc(S(=O)(=O)O)cc2)cc1
inactive: [4] 97 % of control | [5] 93 % of control | [6] 97 % of control

Oc1ccc(SSc2ccc(O)cc2)cc1
inactive: dose: 100.0 mg/kg/injection, schedule: Q01DX009 (ip), vehicle: other 98 % of control | dose: 200.0 mg/kg/injection, schedule: Q01DX009 (ip), vehicle: other 101 % of control | dose: 400.0 mg/kg/injection, schedule: Q01DX009 (ip), vehicle: other 104 % of control

Cc1cc2nc3c(nc2cc1C)-c1ccccc1C3=O
inactive: [4] 94 % of control | [5] 93 % of control | [6] 94 % of control

Nn1c(=O)[nH][nH]c1=O
inactive: [1] 96 % of control | [4] 93 % of control | [2] 96 % of control | [5] 93 % of control | [3] 98 % of control | [6] 98 % of control

CC(O)C(NC(=O)OC(C)(C)C)C(=O)ON1C(=O)CCC1=O (stereo not given)
inactive: dose: 25.0 mg/kg/injection, schedule: Q01DX009 (ip), vehicle: saline with Tween-80 92 % of control | dose: 50.0 mg/kg/injection, schedule: Q01DX009 (ip), vehicle: saline with Tween-80 94 % of control | [1] 96 % of control and 98 % of control
